Measurements from PMC10176470, “Engaging a Non-catalytic Cysteine Residue Drives Potent and Selective Inhibition of Caspase-6” (Journal of the American Chemical Society, 2023).

Key:
Type in all cases: cell-based
[1] = target: proteins of HEK293T cells transiently overexpressing caspase-6 (Homo sapiens, UniProt P04264); conditions: Probe; protein KRT1 P04264
[2] = target: T1, proteins of HEK293T cells transiently overexpressing caspase-6 (Homo sapiens, UniProt P54577); conditions: protein YARS (P54577), analysis C6
T1 sequence (P54577 1-528): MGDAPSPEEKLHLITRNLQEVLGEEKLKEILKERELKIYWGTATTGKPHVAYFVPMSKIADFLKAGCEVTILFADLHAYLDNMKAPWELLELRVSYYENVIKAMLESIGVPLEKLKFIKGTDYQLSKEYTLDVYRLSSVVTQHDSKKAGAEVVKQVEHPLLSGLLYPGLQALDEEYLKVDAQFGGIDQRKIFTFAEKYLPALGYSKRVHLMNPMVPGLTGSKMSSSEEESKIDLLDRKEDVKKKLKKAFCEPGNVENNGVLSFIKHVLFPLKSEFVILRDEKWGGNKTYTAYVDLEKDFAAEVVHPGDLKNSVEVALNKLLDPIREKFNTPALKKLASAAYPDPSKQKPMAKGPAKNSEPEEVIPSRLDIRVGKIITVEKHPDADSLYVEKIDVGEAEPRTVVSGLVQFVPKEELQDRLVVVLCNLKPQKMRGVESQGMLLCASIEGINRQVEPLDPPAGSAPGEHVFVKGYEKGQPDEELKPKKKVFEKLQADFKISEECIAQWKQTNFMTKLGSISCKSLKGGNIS

[3] = target: proteins of HEK293T cells transiently overexpressing caspase-6 (Homo sapiens, UniProt P62805)
[4] = target: proteins of HEK293T cells transiently overexpressing caspase-6 (Homo sapiens, UniProt P63241); conditions: exp_ref Probe; protein EIF5A (P63241); analysis C6
[5] = target: T2, proteins of HEK293T cells transiently overexpressing caspase-6 (Homo sapiens, UniProt Q00325); conditions: protein SLC25A3 (Q00325)
T2 sequence (Q00325 50-362): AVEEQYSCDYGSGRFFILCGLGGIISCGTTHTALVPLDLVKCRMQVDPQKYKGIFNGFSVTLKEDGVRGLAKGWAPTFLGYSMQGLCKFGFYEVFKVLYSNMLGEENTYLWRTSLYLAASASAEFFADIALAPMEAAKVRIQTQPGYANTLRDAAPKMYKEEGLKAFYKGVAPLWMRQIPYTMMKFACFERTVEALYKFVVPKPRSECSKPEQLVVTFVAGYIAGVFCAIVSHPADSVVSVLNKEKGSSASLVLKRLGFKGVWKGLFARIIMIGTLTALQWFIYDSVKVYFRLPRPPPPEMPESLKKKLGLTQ

[6] = target: proteins of HEK293T cells transiently overexpressing caspase-6 (Homo sapiens, UniProt Q12905); conditions: exp_ref Probe; protein ILF2 (Q12905); analysis C6
[7] = target: proteins of HEK293T cells transiently overexpressing caspase-6 (Homo sapiens, UniProt Q13347); conditions: protein EIF3I (Q13347); exp_ref Probe; analysis C6
[8] = target: proteins of HEK293T cells transiently overexpressing caspase-6 (Homo sapiens, UniProt Q15084); conditions: exp_ref Probe; protein PDIA6 (Q15084); analysis C6
[9] = target: proteins of HEK293T cells transiently overexpressing caspase-6 (Homo sapiens, UniProt Q92598); conditions: exp_ref Probe; protein HSPH1 (Q92598); analysis C6
[10] = target: proteins of HEK293T cells transiently overexpressing caspase-6 (Homo sapiens, UniProt Q96SB4); conditions: protein SRPK1 (Q96SB4); exp_ref Probe; analysis C6
[11] = target: proteins of HEK293T cells transiently overexpressing caspase-6 (Homo sapiens, UniProt Q9UL46); conditions: protein PSME2 (Q9UL46); exp_ref Probe; analysis C6
Sequence of proteins of HEK293T cells transiently overexpressing caspase-6 (Homo sapiens, UniProt Q9UL46) (Q9UL46 whole entry): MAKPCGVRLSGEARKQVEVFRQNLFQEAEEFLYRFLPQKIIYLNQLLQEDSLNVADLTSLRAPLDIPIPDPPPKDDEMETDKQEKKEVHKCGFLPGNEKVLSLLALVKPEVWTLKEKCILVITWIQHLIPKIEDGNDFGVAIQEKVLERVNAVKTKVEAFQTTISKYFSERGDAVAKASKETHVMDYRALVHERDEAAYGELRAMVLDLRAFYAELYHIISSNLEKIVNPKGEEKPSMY

Sequence of proteins of HEK293T cells transiently overexpressing caspase-6 (Homo sapiens, UniProt P63241) (P63241 whole entry): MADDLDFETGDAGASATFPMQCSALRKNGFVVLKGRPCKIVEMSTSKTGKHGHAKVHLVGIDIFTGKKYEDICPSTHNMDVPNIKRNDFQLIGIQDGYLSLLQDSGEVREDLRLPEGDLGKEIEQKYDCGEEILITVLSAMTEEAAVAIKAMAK
Sequence of proteins of HEK293T cells transiently overexpressing caspase-6 (Homo sapiens, UniProt Q96SB4) (Q96SB4 whole entry): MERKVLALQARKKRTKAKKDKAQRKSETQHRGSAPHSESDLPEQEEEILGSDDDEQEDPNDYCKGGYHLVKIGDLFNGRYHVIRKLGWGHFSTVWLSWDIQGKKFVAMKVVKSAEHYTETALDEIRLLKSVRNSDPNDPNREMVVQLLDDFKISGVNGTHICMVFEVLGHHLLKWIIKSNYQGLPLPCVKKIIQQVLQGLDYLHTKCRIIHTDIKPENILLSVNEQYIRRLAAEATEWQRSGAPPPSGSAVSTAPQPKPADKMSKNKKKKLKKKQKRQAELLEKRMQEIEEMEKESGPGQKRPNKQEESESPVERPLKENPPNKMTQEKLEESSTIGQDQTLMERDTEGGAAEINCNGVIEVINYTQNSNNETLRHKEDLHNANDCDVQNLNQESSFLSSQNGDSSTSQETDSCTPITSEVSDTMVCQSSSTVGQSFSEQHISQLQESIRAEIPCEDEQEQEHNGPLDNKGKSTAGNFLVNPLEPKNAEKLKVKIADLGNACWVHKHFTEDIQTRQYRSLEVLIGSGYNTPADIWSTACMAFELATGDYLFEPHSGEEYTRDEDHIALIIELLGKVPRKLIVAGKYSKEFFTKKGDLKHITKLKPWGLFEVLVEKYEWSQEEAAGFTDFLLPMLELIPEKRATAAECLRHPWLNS
Sequence of proteins of HEK293T cells transiently overexpressing caspase-6 (Homo sapiens, UniProt Q15084) (Q15084 20-440): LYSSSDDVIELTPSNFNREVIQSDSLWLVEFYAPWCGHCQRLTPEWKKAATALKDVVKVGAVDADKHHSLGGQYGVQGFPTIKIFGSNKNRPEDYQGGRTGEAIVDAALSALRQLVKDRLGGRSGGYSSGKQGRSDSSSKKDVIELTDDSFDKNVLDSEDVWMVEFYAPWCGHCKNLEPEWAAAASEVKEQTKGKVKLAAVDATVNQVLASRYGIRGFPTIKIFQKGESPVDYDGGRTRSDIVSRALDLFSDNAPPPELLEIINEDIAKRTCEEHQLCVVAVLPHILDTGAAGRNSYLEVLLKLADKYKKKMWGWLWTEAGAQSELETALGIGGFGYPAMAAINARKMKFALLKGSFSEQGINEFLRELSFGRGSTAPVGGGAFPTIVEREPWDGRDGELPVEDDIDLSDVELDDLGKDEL
Sequence of proteins of HEK293T cells transiently overexpressing caspase-6 (Homo sapiens, UniProt Q12905) (Q12905 whole entry): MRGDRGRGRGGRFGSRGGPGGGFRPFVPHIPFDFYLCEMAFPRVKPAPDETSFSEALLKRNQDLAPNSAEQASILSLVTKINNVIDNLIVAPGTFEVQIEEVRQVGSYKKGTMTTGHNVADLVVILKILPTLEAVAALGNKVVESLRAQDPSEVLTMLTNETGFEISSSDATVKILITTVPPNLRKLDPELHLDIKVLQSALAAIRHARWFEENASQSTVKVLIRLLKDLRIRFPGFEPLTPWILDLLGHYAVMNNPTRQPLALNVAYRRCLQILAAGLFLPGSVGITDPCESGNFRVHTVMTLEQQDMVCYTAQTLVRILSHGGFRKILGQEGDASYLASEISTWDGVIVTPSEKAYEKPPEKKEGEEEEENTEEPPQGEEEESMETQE
Sequence of proteins of HEK293T cells transiently overexpressing caspase-6 (Homo sapiens, UniProt Q92598) (Q92598 whole entry): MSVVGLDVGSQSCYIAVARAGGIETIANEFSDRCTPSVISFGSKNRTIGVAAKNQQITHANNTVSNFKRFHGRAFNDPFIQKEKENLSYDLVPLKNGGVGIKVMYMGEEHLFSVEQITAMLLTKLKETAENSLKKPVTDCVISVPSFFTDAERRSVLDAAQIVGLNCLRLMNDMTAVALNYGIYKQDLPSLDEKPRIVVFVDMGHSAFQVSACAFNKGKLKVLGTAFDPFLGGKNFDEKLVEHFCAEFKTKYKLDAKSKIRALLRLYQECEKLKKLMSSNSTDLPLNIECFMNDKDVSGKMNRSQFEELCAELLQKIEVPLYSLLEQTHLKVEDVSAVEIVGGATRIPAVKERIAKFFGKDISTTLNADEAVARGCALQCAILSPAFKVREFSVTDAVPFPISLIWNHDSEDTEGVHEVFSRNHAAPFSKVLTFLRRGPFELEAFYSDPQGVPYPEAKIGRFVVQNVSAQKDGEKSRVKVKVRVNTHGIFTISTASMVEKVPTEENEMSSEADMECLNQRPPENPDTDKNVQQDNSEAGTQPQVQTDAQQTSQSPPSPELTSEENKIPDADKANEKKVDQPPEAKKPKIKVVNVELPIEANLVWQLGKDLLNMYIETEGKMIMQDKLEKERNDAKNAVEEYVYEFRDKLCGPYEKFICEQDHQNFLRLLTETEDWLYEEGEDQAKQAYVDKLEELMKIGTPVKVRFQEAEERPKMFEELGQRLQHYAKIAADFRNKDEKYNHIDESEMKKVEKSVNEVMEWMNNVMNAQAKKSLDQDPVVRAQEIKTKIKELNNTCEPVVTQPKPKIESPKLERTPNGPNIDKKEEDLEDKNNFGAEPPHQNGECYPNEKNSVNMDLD
Sequence of proteins of HEK293T cells transiently overexpressing caspase-6 (Homo sapiens, UniProt Q13347) (Q13347 whole entry): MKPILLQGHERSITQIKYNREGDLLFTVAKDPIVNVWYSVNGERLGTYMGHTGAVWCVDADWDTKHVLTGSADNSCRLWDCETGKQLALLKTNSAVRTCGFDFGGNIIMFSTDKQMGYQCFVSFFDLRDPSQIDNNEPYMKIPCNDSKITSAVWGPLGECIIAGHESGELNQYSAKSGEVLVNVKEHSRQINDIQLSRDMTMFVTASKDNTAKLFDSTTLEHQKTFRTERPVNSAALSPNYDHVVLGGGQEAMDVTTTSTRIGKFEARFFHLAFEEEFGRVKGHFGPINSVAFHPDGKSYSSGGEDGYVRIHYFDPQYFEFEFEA
Sequence of proteins of HEK293T cells transiently overexpressing caspase-6 (Homo sapiens, UniProt P04264) (P04264 whole entry): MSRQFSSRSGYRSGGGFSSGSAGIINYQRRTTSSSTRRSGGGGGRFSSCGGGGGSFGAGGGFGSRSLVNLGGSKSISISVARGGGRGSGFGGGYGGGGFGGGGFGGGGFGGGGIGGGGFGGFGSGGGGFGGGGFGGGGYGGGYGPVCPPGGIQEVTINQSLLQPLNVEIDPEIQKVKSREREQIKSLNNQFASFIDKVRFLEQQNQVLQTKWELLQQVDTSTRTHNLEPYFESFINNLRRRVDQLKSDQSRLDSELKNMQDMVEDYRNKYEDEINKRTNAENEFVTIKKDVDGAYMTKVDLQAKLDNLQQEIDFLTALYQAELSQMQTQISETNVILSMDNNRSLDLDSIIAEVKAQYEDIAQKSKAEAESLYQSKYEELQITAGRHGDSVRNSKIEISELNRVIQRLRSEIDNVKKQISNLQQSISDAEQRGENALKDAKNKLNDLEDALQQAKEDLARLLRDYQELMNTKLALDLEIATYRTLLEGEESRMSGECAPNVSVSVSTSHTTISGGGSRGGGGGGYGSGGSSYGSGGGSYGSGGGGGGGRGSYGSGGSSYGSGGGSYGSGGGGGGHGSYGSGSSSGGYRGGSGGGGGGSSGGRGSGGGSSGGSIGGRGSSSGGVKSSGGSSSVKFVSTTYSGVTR

C#CCOc1ccc([C@@H]2C[C@@H](C(=O)Nc3ccc(OC(F)(F)F)cc3)CN(S(=O)(=O)C=C)C2)cc1 (relative stereo) [13-t]
enrich.exp.med [1]: -8.014
enrich.exp.med.lin ([2]; Expt Probe): 10.7591
enrich.exp.med.log2 ([2]; Expt Probe): 3.427
enrich.exp.med ([2]; exp_ref Probe): 3.427
enrich.exp.med ([3]; Probe, protein HIST1H4A P62805): -2.533
enrich.exp.med.lin ([3]; protein HIST1H4A (P62805)): 0.1728
enrich.exp.med.log2 ([3]; protein HIST1H4A (P62805)): -2.533
enrich.exp.med [4]: -0.3746
enrich.exp.med ([5]; exp_ref Probe, analysis C6): 0.6055
enrich.exp.med.lin [5]: 1.522
enrich.exp.med.log2 [5]: 0.6055
enrich.exp.med [6]: 0.9081
enrich.exp.med [7]: 1.576
enrich.exp.med [8]: 0.9602
enrich.exp.med [9]: 0.7489
enrich.exp.med [10]: 1.262
enrich.exp.med [11]: 1.487
